Drawing on patent US12325697B2 (Nimbus Clio, Inc., priority 2021, dated 2025), this text covers IC50 for 17 compounds.

What is called IC50 is the point on the concentration scale where inhibition reaches its midpoint.

Assay [1] concerns the target Recombinant human Cbl-b (aa 36-427) (Homo sapiens (Human), UniProt Q13191). Nature of the assay: Cbl-b Biochemical Assay (TR-FRET). As to conditions: read-out: TR-FRET hCbl-b IC50. In a few lines:
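Two-step TR-FRET: 6 nM biotinylated Cbl-b preincubated 30-60 min with compound, then 60 min at RT with 1-2.5 nM Src-Zap70 and 0.5 mM ATP in HEPES pH 7.0 buffer, 1% DMSO. Stopped with 5 mM EDTA plus 100 nM UBE2D2-Ub-FL-BODIPY and 1 nM streptavidin-Tb, 60 min; 520 nm signal; IC50 from 4-parameter fit.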
In general terms: TR-FRET usually uses a lanthanide donor and a delayed reading to cut background.

Assay [2] addresses Recombinant human c-Cbl (aa 47-435) (Homo sapiens (Human), UniProt P22681). Nature of the assay: c-Cbl Biochemical Assay (TR-FRET). A digest of the protocol:
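Biotinylated c-Cbl (6 nM) preincubated 30 min RT with compound, then reacted 60-90 min with Src-Zap70 (2.5-10 nM) and 0.5 mM ATP, pH 7.0 HEPES buffer. Stopped with EDTA; 100 nM Bodipy-ubiquitinated UBE2D2 binding read by TR-FRET after 60 min; IC50 from 4-parameter fit.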

Molecules are shown by their SMILES.

Recombinant human c-Cbl (aa 47-435), sequence (P22681 47-435): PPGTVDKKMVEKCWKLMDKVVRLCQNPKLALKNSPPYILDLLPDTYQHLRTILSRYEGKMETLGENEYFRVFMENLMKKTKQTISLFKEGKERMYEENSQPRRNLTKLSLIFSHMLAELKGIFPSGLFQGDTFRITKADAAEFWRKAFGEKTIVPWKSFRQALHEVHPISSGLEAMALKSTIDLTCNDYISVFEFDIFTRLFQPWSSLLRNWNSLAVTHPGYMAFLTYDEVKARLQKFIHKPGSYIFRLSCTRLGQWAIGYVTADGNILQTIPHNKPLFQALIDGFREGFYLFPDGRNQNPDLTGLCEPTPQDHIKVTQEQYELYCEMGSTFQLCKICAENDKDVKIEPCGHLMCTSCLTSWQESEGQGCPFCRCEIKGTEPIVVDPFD
Recombinant human Cbl-b (aa 36-427), sequence (Q13191 36-427): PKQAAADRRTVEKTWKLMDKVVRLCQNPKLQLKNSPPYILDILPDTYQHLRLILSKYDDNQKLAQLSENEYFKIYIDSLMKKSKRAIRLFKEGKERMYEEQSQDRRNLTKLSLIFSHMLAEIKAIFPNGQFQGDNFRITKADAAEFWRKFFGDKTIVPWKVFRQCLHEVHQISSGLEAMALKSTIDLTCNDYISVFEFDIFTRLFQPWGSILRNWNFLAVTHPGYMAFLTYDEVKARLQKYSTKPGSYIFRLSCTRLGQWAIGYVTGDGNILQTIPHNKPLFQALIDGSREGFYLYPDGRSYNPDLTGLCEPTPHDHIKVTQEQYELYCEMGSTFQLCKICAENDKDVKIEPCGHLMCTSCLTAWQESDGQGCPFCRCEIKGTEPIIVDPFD

Consider `CN(Cc1ccc2c(c1)C(=O)N(c1cc(-c3ccc(C#N)cc3-c3nncn3C)cc(C3CC3)n1)C2)CC1COC1` [ANX-2, 4-[2-Cyclopropyl-6-(6-{[methyl(oxetan-3-ylmethyl)amino]methyl}-1-oxo-3H-isoindol-2-yl)pyridin-4-yl]-3-(4-methyl-1,2,4-triazol-3-yl)benzonitrile], for which the IC50 in assay [1] and in assay [2] was at most 200 nM throughout.

On to `C[C@H](NCC1COC1)c1ccc2c(c1)C(=O)N(c1cc(-c3ccc(C#N)cc3-c3nncn3C)cc(C3CC3)n1)C2` [ANO-1, (S)-4-(2-Cyclopropyl-6-(6-(1-((oxetan-3-ylmethyl)amino)ethyl)-1-oxoisoindolin-2-yl)pyridin-4-yl)-3-(4-methyl-4H-1,2,4-triazol-3-yl)benzonitrile], for which the half-inhibitory concentration (IC50) in assay [1] and in assay [2] was at most 200 nM in each case.

`Cn1cnnc1-c1cc(C#N)ccc1-c1cc(C2CC2)nc(N2Cc3c(F)cc(CNCC4CC4)cc3C2=O)c1` [AMC-2, 4-[2-Cyclopropyl-6-(6-{[(cyclopropylmethyl)amino]methyl}-4-fluoro-1-oxo-3H-isoindol-2-yl)pyridin-4-yl]-3-(4-methyl-1,2,4-triazol-3-yl)benzonitrile]: the half-inhibitory concentration (IC50) in assay [1] and in assay [2] was at most 200 nM each time.

With `COCCNCc1cc(F)c2c(c1)C(=O)N(c1cc(-c3ccc(C#N)cc3-c3nncn3C)cc(C3CC3)n1)C2` [AIO-9, 4-[2-Cyclopropyl-6-(4-fluoro-6-{[(2-methoxyethyl)amino]methyl}-1-oxo-3H-isoindol-2-yl)pyridin-4-yl]-3-(4-methyl-1,2,4-triazol-3-yl)benzonitrile], the IC50 in assay [1] and in assay [2] was at most 200 nM each time.

As to `Cn1cnnc1-c1cc(C#N)ccc1-c1cc(C2CC2)nc(N2Cc3c(F)cc(CNCC4(F)CCC4)cc3C2=O)c1` [AKK-1, 4-{2-Cyclopropyl-6-[4-fluoro-6-({[(1-fluorocyclobutyl)methyl]amino}methyl)-1-oxo-3H-isoindol-2-yl]pyridin-4-yl}-3-(4-methyl-1,2,4-triazol-3-yl)benzonitrile], the IC50 in assay [1] and in assay [2] was at most 200 nM in each case.

As to `COCCNCc1cc2c(cc1F)CN(c1cc(-c3ccc(C#N)cc3-c3nncn3C)cc(C3CC3)n1)C2=O` [AIH-2, 4-(2-Cyclopropyl-6-(5-fluoro-6-(((2-methoxyethyl)amino)methyl)-1-oxoisoindolin-2-yl)pyridin-4-yl)-3-(4-methyl-4H-1,2,4-triazol-3-yl)benzonitrile], the IC50 in assay [1] and in assay [2] was at most 200 nM throughout.

For the compound `Cn1cnnc1-c1cc(C#N)ccc1-c1cc(C2CC2)nc(N2Cc3ccc(CN4CCC(F)(F)CC4)cc3C2=O)c1` [ALU-2, 4-(2-Cyclopropyl-6-{6-[(4,4-difluoropiperidin-1-yl)methyl]-1-oxo-3H-isoindol-2-yl}pyridin-4-yl)-3-(4-methyl-1,2,4-triazol-3-yl)benzonitrile], the half-inhibitory concentration (IC50) in assay [1] and in assay [2] was at most 200 nM throughout.

As to `Cn1cnnc1-c1cc(C#N)ccc1-c1cc(C2CC2)nc(N2Cc3ccc(CNCC(C)(C)F)cc3C2=O)c1` [ALD-2, 4-[2-Cyclopropyl-6-(6-{[(2-fluoro-2-methylpropyl)amino]methyl}-1-oxo-3H-isoindol-2-yl)pyridin-4-yl]-3-(4-methyl-1,2,4-triazol-3-yl)benzonitrile], the IC50 in assay [1] and in assay [2] was at most 200 nM each time.

For the compound `Cn1cnnc1-c1cc(C#N)ccc1-c1cc(C2CC2)nc(N2Cc3ccc(CNCC(C)(C)O)cc3C2=O)c1` [AIE-1, 4-[2-Cyclopropyl-6-(6-{[(2-hydroxy-2-methylpropyl)amino]methyl}-1-oxo-3H-isoindol-2-yl)pyridin-4-yl]-3-(4-methyl-1,2,4-triazol-3-yl)benzonitrile], the concentration for half-maximal inhibition (IC50) in assay [1] and in assay [2] was at most 200 nM in each case.

In the case of `COC[C@H](C)NCc1cc(F)c2c(c1)C(=O)N(c1cc(-c3ccc(C#N)cc3-c3nncn3C)cc(C3CC3)c1)C2` [ALH-1, 3′-Cyclopropyl-5′-[4-fluoro-6-({[(2S)-1-methoxypropan-2-yl]amino}methyl)-1-oxo-3H-isoindol-2-yl]-2-(4-methyl-1,2,4-triazol-3-yl)-[1,1′-biphenyl]-4-carbonitrile], the IC50 in assay [1] and in assay [2] was at most 200 nM each time.

Regarding `Cn1cnnc1-c1cc(C#N)ccc1-c1cc(C2CC2)nc(N2Cc3ccc(CNCC4(CO)CCC4)cc3C2=O)c1` [AMA-2, 4-(2-Cyclopropyl-6-{6-[({[1-(hydroxymethyl)cyclobutyl]methyl}amino)methyl]-1-oxo-3H-isoindol-2-yl}pyridin-4-yl)-3-(4-methyl-1,2,4-triazol-3-yl)benzonitrile], the IC50 in assay [1] and in assay [2] was at most 200 nM in each case.

As for `Cn1cnnc1-c1cc(C#N)ccc1-c1cc(C2CC2)nc(N2Cc3ccc(C(C)(C)NCC4COC4)cc3C2=O)c1` [AMT-2, 4-[2-Cyclopropyl-6-(6-{2-[(oxetan-3-ylmethyl)amino]propan-2-yl}-1-oxo-3H-isoindol-2-yl)pyridin-4-yl]-3-(4-methyl-1,2,4-triazol-3-yl) benzonitrile], the IC50 in assay [1] and in assay [2] was at most 200 nM throughout.

Turning to `Cn1cnnc1-c1cc(F)ccc1-c1cc(C2CC2)nc(N2Cc3c(cc(COCCO)cc3C(F)(F)F)C2=O)c1` [AHX-2, 2-(6-Cyclopropyl-4-(4-fluoro-2-(4-methyl-4H-1,2,4-triazol-3-yl)phenyl)pyridin-2-yl)-6-((2-hydroxyethoxy)methyl)-4-(trifluoromethyl)isoindolin-1-one], the IC50 in assay [1] and in assay [2] was at most 200 nM in each case.

With `CN(Cc1cc(F)c2c(c1)C(=O)N(c1cc(-c3ccc(C#N)cc3-c3nncn3C)cc(C3CC3)n1)C2)CC1(O)CCC1` [AMW-2, 4-{2-Cyclopropyl-6-[4-fluoro-6-({[(1-hydroxycyclobutyl)methyl](methyl)amino}methyl)-1-oxo-3H-isoindol-2-yl]pyridin-4-yl}-3-(4-methyl-1,2,4-triazol-3-yl)benzonitrile], the IC50 in assay [1] and in assay [2] was at most 200 nM in each case.

Turning to `Cn1cnnc1-c1cc(C#N)ccc1-c1cc(C2CC2)nc(N2Cc3c(F)cc(CNCC4(F)CC4)cc3C2=O)c1` [AKZ-2, 4-{2-Cyclopropyl-6-[4-fluoro-6-({[(1-fluorocyclopropyl)methyl]amino}methyl)-1-oxo-3H-isoindol-2-yl]pyridin-4-yl}-3-(4-methyl-1,2,4-triazol-3-yl)benzonitrile], the IC50 in assay [1] and in assay [2] was at most 200 nM in each case.

As for `CC(=O)c1ccc2c(c1)C(=O)N(c1cc(-c3ccc(C#N)cc3-c3nncn3C)cc(C3CC3)n1)C2` [AJH-3, 4-(2-(6-Acetyl-1-oxoisoindolin-2-yl)-6-cyclopropylpyridin-4-yl)-3-(4-methyl-4H-1,2,4-triazol-3-yl)benzonitrile], the IC50 in assay [1] and in assay [2] was at most 200 nM in each case.

Regarding `CN(Cc1cc2c(c(C(F)(F)F)c1)CN(c1cc(-c3c(-c4nncn4C)cnn3C)cc(C3CC3)n1)C2=O)CC1(O)CCC1` [AJW-1, 2-{6-Cyclopropyl-4-[2-methyl-4-(4-methyl-1,2,4-triazol-3-yl)pyrazol-3-yl]pyridin-2-yl}-6-({[(1-hydroxycyclobutyl)methyl](methyl)amino}methyl)-4-(trifluoromethyl)-3H-isoindol-1-one], the IC50 in assay [1] and in assay [2] was at most 200 nM throughout.
